Measured values published in a melting point compilation (Tetko et al.).
Non-standard residues stand in square brackets, D forms with d. Residues, ends and D or L forms follow the SMILES beside them. *: point of attachment. Phe(2-Me) = Cc1ccccc1C[CH](N)C(=O)O; Tle = CC(C)(C)[CH](N)C(=O)O; X3 = CC(C)(C)OC(=O)CCC(=O)*; Boc = CC(C)(C)OC(=O)*; X4 = CCC(N*)C(OC)OC; Bn = c1ccc(C*)cc1; OtBu = CC(C)(C)O*

Row | SMILES | melting point
1 | O=S(=O)(C(/C=C/c1ccc(Br)cc1)c1ccc(I)cc1)C(/C=C/c1ccc(Br)cc1)c1ccc(I)cc1 (stereo not given) | 217 to 219 °C
2 | O=S(=O)(C(/C=C/c1ccc(I)cc1)c1ccc(Br)cc1)C(/C=C/c1ccc(I)cc1)c1ccc(Br)cc1 (stereo not given) | 201 to 203 °C
3 | CCCCCCCCNC(=O)CO | 80 °C
4 | O=C(Nc1c(Cl)cncc1Cl)C(=O)c1cn(Cc2c(F)cccc2[N+](=O)[O-])c2c(O)cccc12 | 308 to 310 °C
5 | FC(F)OC(Cl)C(F)(F)F (stereo not given) | -108 °C
6 | CC(=O)OCCn1c([N+](=O)[O-])cnc1CO | 138 to 145 °C
7 | O=c1cc(O)cc(-c2ccc(Cl)cc2)o1 | 247 to 249 °C
8 | CCC(CO)Sc1nc(Nc2ccc(S(C)(=N)=O)cc2)ncc1Br (mixture of isomers) | 175 to 180 °C
9 | O=C(NCCCN1CCOCC1)c1ccc(-c2ccc(Br)cc2)o1 | 83 to 100 °C
10 | O=C1OC(O)c2cccc(F)c21 (stereo not given) | 126 to 127 °C

The remaining lines, values ahead:

Row | melting point | SMILES
11 | 258 to 261 °C | CC1(C)CC(N(c2nc(N(C3CC(C)(C)N(O)C(C)(C)C3)C3CC(C)(C)N(O)C(C)(C)C3)nc(N(C3CC(C)(C)N(O)C(C)(C)C3)C3CC(C)(C)N(O)C(C)(C)C3)n2)C2CC(C)(C)N(O)C(C)(C)C2)CC(C)(C)N1O
12 | 242 to 244 °C | CCC(NC(=O)C(CC(C)C)NC(=O)C(NC(=O)C(Cc1ccccc1C)NC(=O)C(CCC(=O)OC(C)(C)C)NC(=O)C(CC(=O)OC(C)(C)C)NC(=O)CCC(=O)OC(C)(C)C)C(C)(C)C)C(OC)OC (X3-D(OtBu)E(OtBu)[Phe(2-Me)][Tle]L-X4; configuration not given here)
13 | 147 to 149 °C | CC(=O)OC(COc1ccc(C(C)(C)c2ccc(OCC(CN3C(=O)NC4(CC(C)(C)N(C(C)=O)C(C)(C)C4)C3=O)OC(C)=O)cc2)cc1)CN1C(=O)NC2(CC(C)(C)N(C(C)=O)C(C)(C)C2)C1=O (stereo not given)
14 | 160 to 168 °C | COc1cccc(-c2cc3ncnc(Nc4ccc5[nH]ccc5c4)c3s2)c1
15 | 98 to 100 °C | CC(C)C(NC(=O)C(Cc1ccc(OCc2ccccc2)cc1)NC(=O)C(COCc1ccccc1)NC(=O)C(Cc1c[nH]c2ccccc12)NC(=O)OC(C)(C)C)C(=O)O (stereo not given) (Boc-WS(Bn)Y(Bn)V-OH; configuration not given here)
16 | 166 to 167 °C | CC(=O)Oc1ccc(-c2cnc(N(S(=O)(=O)Cc3ccc(I)cc3)S(=O)(=O)Cc3ccc(I)cc3)c(Cc3ccccc3)n2)cc1
17 | 110 to 114 °C | CC(C)[C@H](NC(=O)N(C)Cc1csc(N)n1)C(=O)N[C@@H](Cc1ccccc1)C[C@H](O)[C@H](Cc1ccccc1)NC(=O)[C@@H](NC(=O)N(C)Cc1csc(N)n1)C(C)C
18 | 199 to 200 °C | CCOCc1nc2c(N)nc3cc(Br)ccc3c2n1CC1CCN(C(=O)CC(C)C)CC1
19 | 72 to 77 °C | CCC(C)(C)c1ccc(OCC(=O)Nc2cccc(C(=O)Nc3[nH]n(-c4c(Cl)cc(Cl)cc4Cl)c(=O)c3OC(=O)Nc3ccccc3)c2)c(C(C)(C)CC)c1
20 | 179 to 180 °C | COc1cc(OC)c(/C=C/C(c2ccc(OC)c(NC(=O)C(F)(F)C(F)(F)F)c2)S(=O)(=O)C(/C=C/c2c(OC)cc(OC)cc2OC)c2ccc(OC)c(NC(=O)C(F)(F)C(F)(F)F)c2)c(OC)c1 (stereo not given)
21 | 54 to 56 °C | CCCCC(CC)COc1cc2c3cc(OCC(CC)CCCC)c(OCC(CC)CCCC)cc3c3c(OC)ccc(OC)c3c2cc1OCC(CC)CCCC (stereo not given)
22 | 189 to 194 °C | CCCCN(c1nc(N(CCCC)C2CC(C)(C)N(OC3CCCCC3)C(C)(C)C2)nc(N(CCCC)C2CC(C)(C)N(OC3CCCCC3)C(C)(C)C2)n1)C1CC(C)(C)N(OC2CCCCC2)C(C)(C)C1
23 | 225 to 227 °C | CCCCN(Cc1c(C)cc(C(C)(C)C)c(O)c1C)S(=O)(=O)c1ccc(-c2ccc(S(=O)(=O)N(CCCC)Cc3c(C)cc(C(C)(C)C)c(O)c3C)cc2)cc1
24 | 195 to 197 °C | COC(=O)CNC(=O)[C@H](NC(=O)[C@@H](CSC(c1ccccc1)(c1ccccc1)c1ccccc1)NC(=O)[C@@H](C)NC(=O)OCC1c2ccccc2-c2ccccc21)C(C)C
25 | 153 to 159 °C | COc1ccc(-c2cc(C(=O)NCCCCCCc3ccccc3)cc(-c3cccc(C(F)(F)F)c3)c2OCC(=O)O)cc1
